Test results reported in patent US20240116985A1, “STAPLED PEPTIDES AND METHODS THEREOF” (priority 2020, published 2024).
Values after ≈ are worked out from the molar mass of the structure shown. Where two headings read alike, the source gives them in different places.

Assays:
[1] = target: T1, full-length beta-Catenin (Uniprot ID P35222) (Homo sapiens, UniProt P35222); test: Fluorescence polarization IC50 (beta-catenin / 5FAM-TCF4 10-53 competition); format: binding
T1 construct: 10 nM full-length beta-Catenin (Uniprot ID P35222)
T1 sequence (P35222 1-781): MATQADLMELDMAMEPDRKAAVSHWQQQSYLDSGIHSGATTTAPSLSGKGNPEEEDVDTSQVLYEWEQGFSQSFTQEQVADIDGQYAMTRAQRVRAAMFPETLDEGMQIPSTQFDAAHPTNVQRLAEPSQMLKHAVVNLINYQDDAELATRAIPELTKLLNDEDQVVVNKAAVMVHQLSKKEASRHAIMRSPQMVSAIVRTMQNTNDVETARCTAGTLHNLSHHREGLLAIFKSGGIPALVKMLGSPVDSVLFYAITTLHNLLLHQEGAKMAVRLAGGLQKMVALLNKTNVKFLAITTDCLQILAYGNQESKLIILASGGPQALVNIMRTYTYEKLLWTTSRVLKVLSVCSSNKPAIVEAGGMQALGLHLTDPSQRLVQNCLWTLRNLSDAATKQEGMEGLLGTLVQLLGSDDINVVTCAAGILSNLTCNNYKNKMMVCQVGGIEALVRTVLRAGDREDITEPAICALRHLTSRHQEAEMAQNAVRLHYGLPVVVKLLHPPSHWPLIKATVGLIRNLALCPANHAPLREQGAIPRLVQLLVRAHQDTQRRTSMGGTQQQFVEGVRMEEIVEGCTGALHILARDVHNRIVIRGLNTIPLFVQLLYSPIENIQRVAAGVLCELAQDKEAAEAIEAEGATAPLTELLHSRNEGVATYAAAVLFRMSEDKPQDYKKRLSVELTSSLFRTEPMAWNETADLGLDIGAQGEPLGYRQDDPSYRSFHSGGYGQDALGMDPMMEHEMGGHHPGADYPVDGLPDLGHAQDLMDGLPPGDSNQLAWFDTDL

CHI Log D procedure = format: physicochemical; conditions: for chromatographic logD: pH 7.4, CHI Log D
Solubility in PBS = format: physicochemical
How it was run: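 HPLC quantitation of peptide remaining in the PBS supernatant after ultracentrifugation, referenced to a 50 μM solution in DMSO.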

[2] = target: T2, beta-catenin/TCF4 engagement (Homo sapiens, UniProt P35222); test: Nano-BRET target engagement assay (B-cat-Halo & TCF4-Luc in HEK293 cells); format: cell-based; conditions: for inhibition at 10 µM: HEK293, 10 uM, read-out: NanoBRET % inh @ 10 uM
T2 construct: expressed in transfected cells; host or cells: HEK293
T2 sequence (P35222 1-781): T1 sequence (P35222 1-781)

[3] = fluorescence polarization, beta-catenin, read-out: FP EC50
[4] = absolute IC50, read-out: NanoBRET Abs IC50

IC50 [1, 3]	IC50 ([1]; read-out: beta-Catenin FP IC50)	CHI Log D (CHI Log D procedure; pH 7.4)	Solubility (Solubility in PBS)	inhibition at 10 µM [2]	IC50 ([2]; read-out: NanoBRET Abs IC50)	chromatographic logD (CHI Log D procedure)	Solubility (Solubility in PBS; Solubility (uM))	IC50 [2, 4]	IC50 ([2]; read-out: NanoBRET IC50)	Structure (SMILES)
11 nM	11 nM	2.109	50 µM (≈ 99.5 µg/mL)	27.6%	37600 nM	–	–	–	–	CC(=O)N1CCC[C@]12CC=CCCCC1(CCCC=CCCCCOC(=O)N3CC[C@@](C(=O)N[C@@H](Cc4ccsc4)C(=O)N[C@@H](Cc4csc5ccccc45)C(=O)N[C@@H](CC(N)=O)C(=O)N[C@H](C)C(N)=O)(C3)NC(=O)[C@H](CC(N)=O)NC(=O)[C@H](Cc3ccccc3)NC(=O)[C@H](C)NC(=O)[C@H](C)NC(=O)[C@H](CC(=O)O)NC(=O)[C@H](CC(=O)O)NC1=O)NC(=O)[C@H](CC(C)(C)C)NC(=O)[C@H](CC(=O)O)NC2=O (stereo partly drawn) [I-835, Ac-PL3-Asp-Npg-B5-Asp-Asp-Ala-Ala-Phe-Asn-PyrS3-3Thi-BztA-Asn-dAla-NH2]
–	11 nM	–	–	–	–	2.22	41 µM (≈ 78.6 µg/mL)	16900 nM	–	CC(=O)N1CCC[C@]12CC=CCCCC1(CCCC=CCCCOC(=O)N3CC[C@@](C(=O)N[C@@H](Cc4ccsc4)C(=O)N[C@@H](Cc4csc5ccccc45)C(=O)N[C@@H](CCC(N)=O)C(N)=O)(C3)NC(=O)[C@H](CC(N)=O)NC(=O)[C@H](Cc3ccccc3)NC(=O)[C@H](C)NC(=O)[C@H](C)NC(=O)[C@H](CC(N)=O)NC(=O)[C@H](CC(=O)O)NC1=O)NC(=O)[C@H](CC(C)(C)C)NC(=O)[C@H](CC(=O)O)NC2=O (stereo partly drawn) [I-836, Ac-PL3-Asp-Npg-B5-Asp-Asn-Ala-Ala-Phe-Asn-PyrS2-3Thi-BztA-Gln-NH2]
–	5 nM	–	–	–	–	2.3	14 µM (≈ 27 µg/mL)	23800 nM	–	CC(=O)N1CCC[C@]12CC=CCCCC1(CCCC=CCCCOC(=O)N3CC[C@@](C(=O)N[C@@H](Cc4ccsc4)C(=O)N[C@@H](Cc4csc5ccccc45)C(=O)N[C@@H](Cc4c[nH]cn4)C(N)=O)(C3)NC(=O)[C@H](CC(N)=O)NC(=O)[C@H](Cc3ccccc3)NC(=O)[C@H](C)NC(=O)[C@H](C)NC(=O)[C@H](CC(N)=O)NC(=O)[C@H](CC(=O)O)NC1=O)NC(=O)[C@H](CC(C)(C)C)NC(=O)[C@H](CC(=O)O)NC2=O (stereo partly drawn) [I-837, Ac-PL3-Asp-Npg-B5-Asp-Asn-Ala-Ala-Phe-Asn-PyrS2-3Thi-BztA-His-NH2]
–	12 nM	–	–	–	–	2.19	41 µM (≈ 79.2 µg/mL)	17400 nM	–	CC(=O)N1CCC[C@]12CC=CCCCC1(CCCC=CCCCOC(=O)N3CC[C@@](C(=O)N[C@@H](Cc4ccsc4)C(=O)N[C@@H](Cc4csc5ccccc45)C(=O)N[C@@H](CCC(N)=O)C(N)=O)(C3)NC(=O)[C@H](CC(N)=O)NC(=O)[C@H](Cc3ccccc3)NC(=O)[C@H](C)NC(=O)[C@H](C)NC(=O)[C@H](CCC(N)=O)NC(=O)[C@H](CC(=O)O)NC1=O)NC(=O)[C@H](CC(C)(C)C)NC(=O)[C@H](CC(=O)O)NC2=O (stereo partly drawn) [I-838, Ac-PL3-Asp-Npg-B5-Asp-Gln-Ala-Ala-Phe-Asn-PyrS2-3Thi-BztA-Gln-NH2]
–	7 nM	–	–	–	–	2.27	13 µM (≈ 25.2 µg/mL)	41900 nM	–	CC(=O)N1CCC[C@]12CC=CCCCC1(CCCC=CCCCOC(=O)N3CC[C@@](C(=O)N[C@@H](Cc4ccsc4)C(=O)N[C@@H](Cc4csc5ccccc45)C(=O)N[C@@H](Cc4c[nH]cn4)C(N)=O)(C3)NC(=O)[C@H](CC(N)=O)NC(=O)[C@H](Cc3ccccc3)NC(=O)[C@H](C)NC(=O)[C@H](C)NC(=O)[C@H](CCC(N)=O)NC(=O)[C@H](CC(=O)O)NC1=O)NC(=O)[C@H](CC(C)(C)C)NC(=O)[C@H](CC(=O)O)NC2=O (stereo partly drawn) [I-839, Ac-PL3-Asp-Npg-B5-Asp-Gln-Ala-Ala-Phe-Asn-PyrS2-3Thi-BztA-His-NH2]
–	16 nM	–	–	–	–	2.19	32 µM (≈ 62.7 µg/mL)	22300 nM	–	CC(=O)N1CCC[C@]12CC=CCCCC1(CCCC=CCCCOC(=O)N3CC[C@@](C(=O)N[C@@H](Cc4ccsc4)C(=O)N[C@@H](Cc4csc5ccccc45)C(=O)N[C@@H](CCC(N)=O)C(N)=O)(C3)NC(=O)[C@H](CC(N)=O)NC(=O)[C@H](Cc3ccccc3)NC(=O)[C@H](C)NC(=O)[C@H](C)NC(=O)[C@H](CCCNC(N)=O)NC(=O)[C@H](CC(=O)O)NC1=O)NC(=O)[C@H](CC(C)(C)C)NC(=O)[C@H](CC(=O)O)NC2=O (stereo partly drawn) [I-840, Ac-PL3-Asp-Npg-B5-Asp-Cit-Ala-Ala-Phe-Asn-PyrS2-3Thi-BztA-Gln-NH2]
–	12 nM	–	–	–	–	2.26	14 µM (≈ 27.6 µg/mL)	34400 nM	–	CC(=O)N1CCC[C@]12CC=CCCCC1(CCCC=CCCCOC(=O)N3CC[C@@](C(=O)N[C@@H](Cc4ccsc4)C(=O)N[C@@H](Cc4csc5ccccc45)C(=O)N[C@@H](Cc4c[nH]cn4)C(N)=O)(C3)NC(=O)[C@H](CC(N)=O)NC(=O)[C@H](Cc3ccccc3)NC(=O)[C@H](C)NC(=O)[C@H](C)NC(=O)[C@H](CCCNC(N)=O)NC(=O)[C@H](CC(=O)O)NC1=O)NC(=O)[C@H](CC(C)(C)C)NC(=O)[C@H](CC(=O)O)NC2=O (stereo partly drawn) [I-841, Ac-PL3-Asp-Npg-B5-Asp-Cit-Ala-Ala-Phe-Asn-PyrS2-3Thi-BztA-His-NH2]
–	34 nM	–	10 µM (≈ 19.7 µg/mL)	–	–	2.39	–	47900 nM	–	CC(=O)N1CCC[C@]12CC=CCCCC1(CCCC=CCCCOC(=O)N3CC[C@@](C(=O)N[C@@H](Cc4ccsc4)C(=O)N[C@@H](Cc4csc5ccccc45)C(=O)N[C@@H](CCC(N)=O)C(N)=O)(C3)NC(=O)[C@H](CC(N)=O)NC(=O)[C@H](Cc3ccccc3)NC(=O)[C@H](C)NC(=O)[C@H](C)NC(=O)[C@H](Cc3ccc(O)cc3)NC(=O)[C@H](CC(=O)O)NC1=O)NC(=O)[C@H](CC(C)(C)C)NC(=O)[C@H](CC(=O)O)NC2=O (stereo partly drawn) [I-842, Ac-PL3-Asp-Npg-B5-Asp-Tyr-Ala-Ala-Phe-Asn-PyrS2-3Thi-BztA-Gln-NH2]
–	6 nM	–	–	–	–	2.31	35 µM (≈ 66.6 µg/mL)	–	10700 nM	CC(=O)N1CCC[C@]12CC=CCCCC1(CCCC=CCCCOC(=O)N3CC[C@@](C(=O)N[C@@H](Cc4ccsc4)C(=O)N[C@@H](Cc4csc5ccccc45)C(=O)N[C@@H](CCC(N)=O)C(N)=O)(C3)NC(=O)[C@H](CC(N)=O)NC(=O)[C@H](Cc3ccccc3)NC(=O)[C@H](C)NC(=O)[C@H](C)NC(=O)[C@H]([C@@H](C)O)NC(=O)[C@H](CC(=O)O)NC1=O)NC(=O)[C@H](CC(C)(C)C)NC(=O)[C@H](CC(=O)O)NC2=O (stereo partly drawn) [I-844, Ac-PL3-Asp-Npg-B5-Asp-Thr-Ala-Ala-Phe-Asn-PyrS2-3Thi-BztA-Gln-NH2]
35 nM	56 nM	–	–	4.3%	–	2.42	18 µM (≈ 34.5 µg/mL)	–	–	CC(=O)N1CCC[C@]12CC=CCCCC1(CCCC=CCCCOC(=O)N3CC[C@@](C(=O)N[C@@H](Cc4ccsc4)C(=O)N[C@@H](Cc4csc5ccccc45)C(=O)N[C@@H](CCC(N)=O)C(N)=O)(C3)NC(=O)[C@H](CC(N)=O)NC(=O)[C@H](Cc3ccccc3)NC(=O)[C@H](C)NC(=O)[C@H](C)NC(=O)[C@H](CC(C)C)NC(=O)[C@H](CC(=O)O)NC1=O)NC(=O)[C@H](CC(C)(C)C)NC(=O)[C@H](CC(=O)O)NC2=O (stereo partly drawn) [I-846, Ac-PL3-Asp-Npg-B5-Asp-Leu-Ala-Ala-Phe-Asn-PyrS2-3Thi-BztA-Gln-NH2]
–	28 nM	–	10 µM (≈ 19.3 µg/mL)	–	> 20000 nM	2.51	–	–	–	CC(=O)N1CCC[C@]12CC=CCCCC1(CCCC=CCCCOC(=O)N3CC[C@@](C(=O)N[C@@H](Cc4ccsc4)C(=O)N[C@@H](Cc4csc5ccccc45)C(=O)N[C@@H](Cc4c[nH]cn4)C(N)=O)(C3)NC(=O)[C@H](CC(N)=O)NC(=O)[C@H](Cc3ccccc3)NC(=O)[C@H](C)NC(=O)[C@H](C)NC(=O)[C@H](CC(C)C)NC(=O)[C@H](CC(=O)O)NC1=O)NC(=O)[C@H](CC(C)(C)C)NC(=O)[C@H](CC(=O)O)NC2=O (stereo partly drawn) [I-847, Ac-PL3-Asp-Npg-B5-Asp-Leu-Ala-Ala-Phe-Asn-PyrS2-3Thi-BztA-His-NH2]
–	15 nM	–	10 µM (≈ 17.9 µg/mL)	–	30600 nM	2.58	–	–	50600 nM	CC(=O)N1CCC[C@]12CC=CCCCC1(CCCC=CCCCOC(=O)N3CC[C@@](C(=O)N[C@@H](Cc4ccsc4)C(=O)N[C@@H](Cc4csc5ccccc45)C(N)=O)(C3)NC(=O)[C@H](CC(N)=O)NC(=O)[C@H](Cc3ccccc3)NC(=O)[C@H](C)NC(=O)[C@H](C)NC(=O)[C@H](CC(N)=O)NC(=O)[C@H](CC(=O)O)NC1=O)NC(=O)[C@H](CC(C)(C)C)NC(=O)[C@H](CC(=O)O)NC2=O (stereo partly drawn) [I-857, Ac-PL3-Asp-Npg-B5-Asp-Asn-Ala-Ala-Phe-Asn-PyrS2-3Thi-BztA-NH2]
